Measurements reported in PubChem BioAssay (NCI).
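Following 48 hours of exposure in 96-well plates, responses at five concentrations were used to interpolate endpoints linearly. GI50 marks 50% less growth. At the TGI there is no net growth.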

Key:
Experiment in all cases: inhibition of tumour cell growth, NCI panel, 48 h
HCT-15 colon = tested on: HCT-15 colon
IGROV1 ovarian = tested on: IGROV1 ovarian
NCI-H226 lung = tested on: NCI-H226 lung
OVCAR-8 ovarian = tested on: OVCAR-8 ovarian
RPMI-8226 leukemia = tested on: RPMI-8226 leukemia
SK-OV-3 ovarian = tested on: SK-OV-3 ovarian
SNB-75 CNS = tested on: SNB-75 CNS
UACC-62 melanoma = tested on: UACC-62 melanoma
DU-145 prostate = tested on: DU-145 prostate
MDA-MB-231 breast = tested on: MDA-MB-231 breast

Compound | TGI (HCT-15 colon) [µM] | TGI (IGROV1 ovarian) [µM] | TGI (NCI-H226 lung) [µM] | TGI (OVCAR-8 ovarian) [µM] | TGI (RPMI-8226 leukemia) [µM] | TGI (SK-OV-3 ovarian) [µM] | TGI (SNB-75 CNS) [µM] | TGI (UACC-62 melanoma) [µM] | TGI (DU-145 prostate) [µM] | TGI (MDA-MB-231 breast) [µM] | GI50 (DU-145 prostate) [µM] | GI50 (HCT-15 colon) [µM] | GI50 (IGROV1 ovarian) [µM] | GI50 (MDA-MB-231 breast) [µM] | GI50 (NCI-H226 lung) [µM] | GI50 (OVCAR-8 ovarian) [µM] | GI50 (RPMI-8226 leukemia) [µM] | GI50 (SNB-75 CNS) [µM] | GI50 (UACC-62 melanoma) [µM] | GI50 (SK-OV-3 ovarian) [µM]
O=C1OC(CC(=O)c2ccc(Cl)cc2Cl)C(Cl)=C1Cl (centres undefined) | > 70.6 | > 69.9 | > 89.5 | > 60.2 | > 73 | > 63.4 | > 61.1 | 40 |  |  |  |  |  |  |  |  |  |  |  | 
CC1=C(C(=O)Nc2cccc(Cl)c2)C(c2ccc([N+](=O)[O-])cc2)C(C(=O)Nc2cccc(Cl)c2)=C(C)N1 | 79.8 | > 100 | 84.5 | > 100 | 83.4 | 48.9 | 91.1 | 37.2 |  |  |  |  |  |  |  |  |  |  |  | 
Cc1ccc(S(=O)(=O)NNC(=O)c2sc(-c3nc(C)c(C(=O)NNS(=O)(=O)c4ccc(C)cc4)s3)nc2C)cc1 | > 100 | > 100 | > 100 | > 100 | > 100 | > 100 | > 100 | > 100 |  |  |  |  |  |  |  |  |  |  |  | 
Cc1ccc2c(c1C)-c1c(ccc(C)c1C)C(=O)C2=O | 11 | 4.75 | 5.91 | 0.905 | 0.559 | 8.41 |  | 1.68 | 3.41 | 8.57 |  |  |  |  |  |  |  |  |  | 
CC1CC(c2cccc3c2OCO3)=Nc2ccccc2S1 (centres undefined) | > 100 | > 100 | > 100 | > 100 | > 100 | > 100 | > 100 | > 100 |  |  |  |  |  |  |  |  |  |  |  | 
COc1ccc(C(Cc2cc(OC)c(OC)c(OC)c2)C(=O)O)cc1 (centres undefined) | > 100 | > 100 | > 100 | > 100 | > 100 | > 100 | 65.2 | > 100 |  |  |  |  |  |  |  |  |  |  |  | 
Cc1cc(C)c2c(c1)Nc1ccccc1P2c1ccccc1 (centres undefined) | > 100 | > 100 |  | > 100 | 26.7 | > 100 | 78.5 | > 100 |  |  |  |  |  |  |  |  |  |  |  | 
CC(CN1CCN(C)CC1)CN1c2ccccc2Sc2ccc(C(F)(F)F)cc21 (centres undefined) | 3.95 | 10.2 | 8.51 | 3.34 | 5.49 |  | 7.85 | 4.18 | 6.99 | 2.82 | 2.8 | 1.81 | 2.77 | 1.36 | 2.6 | 1.76 | 2.43 | 2.21 | 2.09 | 
CCN1CCN(CC(=O)Nc2nc3ccc(NCc4ccc(Cl)cc4)cc3s2)CC1 | 4.66 | 14.9 |  | > 100 | 4.04 | 7.98 | 4.5 | 4.03 | > 100 | 4.02 | 7.31 | 1.95 | 3.37 | 1.89 |  | 4.59 | 1.6 | 1.88 | 2.08 | 2.95
O=C1CC(c2ccc3c(c2)OCO3)Nc2cc3c(cc21)OCO3 (centres undefined) | > 100 |  | > 100 | > 100 |  | 44.2 |  | > 100 | 14.7 |  | 0.405 | 0.432 |  |  | 13.9 | 0.84 |  |  | 0.673 | 0.485
